Reference: US8795962B2, “Expression vectors based on modified ribosomal protein promoters and uses thereof in post-transcriptional assessment” (King Faisal Specialist Hospital and Research Center, priority 2008, dated 2014)
“Also recorded” adds a separate entry of the source.

Tests used:
[1] = system: control RPS30-3′UTR reporter; test: RPS30I-M1 EGFP reporter with control stable 3′UTR, post-transcriptional induction (FIG. 3); format: cell-based, human; conditions: HEK293 cells, okadaic acid 100 nM
Method: (§1) Selective for post-transcriptional regulation in the RPS30I-M linked-reporter system. HEK293 cells in 96-well plates were transfected with 150 ng of EGFP reporter vectors that are under the transcriptional control of the ribosomal protein RPS30I-M1. The EGFP reporter contains either control stable 3′UTR or 3′UTR which contain 200 bases of IL-8 3′UTR sequences known to contain mRNA destabilization elements, AU-rich elements. After approximately 20 hr, the cells were treated with the following compounds: okadaic acid (100 nM) or IL-α (3 ng/ml) to induce post-transcriptional induction, if any. High resolution images were obtained automatically by BD high-content imager. Quantitation was performed with our in-house ProXcell imaging algorithm.
The RPS30I-M1 with control 3′UTR, RPS30I-M1 with IL-8 3′UTR, and RPS30I-M1 with TNF-α 3′UTR vectors were tested for use to assess post-transcriptional regulation. Transfected cells were stimulated with the following compounds, IL-α or okadaic acid. Any compound or modulators such as protein, expression vector, or small inhibitory RNA, or any other RNA vector can be tested for the post-transcriptional effects, i.e., induction or repression.

[2] = system: EGFP reporter vectors under the transcriptional control of the ribosomal protein RPS30, RPS23I-M, or RPS30I-M1 sequences; test: EGFP reporter under ribosomal protein promoters with control stable 3′UTR, treated with inducers (FIG. 1B); format: cell-based, human; conditions: HEK293 cells, okadaic acid 100 nM or TNF-α 10 ng/ml, added about 20 hr after transfection
Method: (§2) B HEK293 cells in 96-well plates were transfected with 150 ng of EGFP reporter vectors that are under the transcriptional control of the ribosomal protein RPS30, RPS23I-M, or RPS30I-M1 sequences. The EGFP reporter contains control stable 3′UTR. After approximately 20 hr, the cells were treated with the following compounds: okadaic acid (100 nM) or TNF-α (10 ng/ml) to induce post-transcriptional induction, if any. High resolution images were obtained automatically by BD high-content imager. Quantitation was performed with our in-house ProXcell imaging algorithm.

[3] = system: RPS30I-M1-IL-8 3′UTR reporter; test: RPS30I-M1 EGFP reporter with IL-8 3′UTR (AU-rich elements), post-transcriptional induction (FIG. 3); format: cell-based, human; conditions: HEK293 cells, 3′UTR with 200 bases of IL-8 3′UTR; okadaic acid 100 nM
Method: as §1
The AU-rich regions, approximately 200 bases, of TNF-α and IL-8 3′UTR were cloned into the vector. Briefly, a 237 bp region (972-1209 nt: NM_000584, SEQ ID NO. 9) that belongs to the 1250 bp IL-8 3′UTR or 250 bases from TNF-α 3′UTR: (1200-1450 bp, NM_000594, SEQ ID NO. 10) were amplified by RT-PCR using specific primers that contains BamH1 and XbaI restriction sites. The PCR products were cut by BamH I and Xba I sequentially and followed by phenol extraction and ethanol precipitation. The purified cut PCR products were ligated into the EGFP expression vector that has bovine growth hormone 3′UTR that has BamH1 and XbaI sites. […]

[4] = system: EGFP reporter vector under the transcriptional control of the CMV promoter; test: EGFP reporter under CMV promoter, treated with inducers (FIG. 2); format: cell-based; conditions: HEK293 cells, TNF-α 10 ng/ml
Method: as §2, with “HEK293” for “B HEK293”, “CMV” for “ribosomal protein RPS30, RPS23I-M,”, “SV40 promoter.” for “RPS30I-M1 sequences. The EGFP reporter contains control stable 3′UTR.”, “induction,” for “induction, if any.”, “with” for “with our in-house”

[5] = system: EGFP reporter vector under the transcriptional control of the SV40 promoter; test: EGFP reporter under SV40 promoter, treated with inducers (FIG. 2); format: cell-based; conditions: HEK293 cells, TNF-α 10 ng/ml
Method: as §2, with “HEK293” for “B HEK293”, “CMV” for “ribosomal protein RPS30, RPS23I-M,”, “SV40 promoter.” for “RPS30I-M1 sequences. The EGFP reporter contains control stable 3′UTR.”, “induction,” for “induction, if any.”, “with” for “with our in-house”

| Compound | post-transcriptional induction of EGFP reporter [1] | induction of EGFP reporter fluorescence [2] | induction of EGFP reporter fluorescence ([2]; listed as okdadaic acid) | post-transcriptional induction of EGFP reporter [3] | transcriptional induction of EGFP reporter [4] | transcriptional induction of EGFP reporter [5] |
| --- | --- | --- | --- | --- | --- | --- |
| C=C1[C@@H](O)[C@@H]2O[C@]3(CC[C@H](/C=C/[C@@H](C)[C@@H]4CC(C)=C[C@@]5(O[C@H](C[C@@](C)(O)C(=O)O)CC[C@H]5O)O4)O3)CC[C@H]2O[C@@H]1[C@@H](O)C[C@H](C)[C@H]1O[C@@]2(CCCCO2)CC[C@H]1C [okadaic acid] | not | not transcriptionally inducible | no induction | significantly increases | – | – |
| TNF-α | – | no induction; also recorded: not transcriptionally inducible | – | – | respond to transcriptional induction | respond to transcriptional induction |
